{"source": "patent US9012617B2", "about": "“Detection reagents for tyrosine kinase activity and methods of use thereof” (The Trustees of The University of Pennsylvania, priority 2011, dated 2015)", "key": {"[1]": {"target": "T1, EphA4 (Homo sapiens, UniProt P54764)", "T1 construct": "expressed in transfected cells; host or cells: HEK 293T", "T1 sequence (P54764 20-986, species assumed)": "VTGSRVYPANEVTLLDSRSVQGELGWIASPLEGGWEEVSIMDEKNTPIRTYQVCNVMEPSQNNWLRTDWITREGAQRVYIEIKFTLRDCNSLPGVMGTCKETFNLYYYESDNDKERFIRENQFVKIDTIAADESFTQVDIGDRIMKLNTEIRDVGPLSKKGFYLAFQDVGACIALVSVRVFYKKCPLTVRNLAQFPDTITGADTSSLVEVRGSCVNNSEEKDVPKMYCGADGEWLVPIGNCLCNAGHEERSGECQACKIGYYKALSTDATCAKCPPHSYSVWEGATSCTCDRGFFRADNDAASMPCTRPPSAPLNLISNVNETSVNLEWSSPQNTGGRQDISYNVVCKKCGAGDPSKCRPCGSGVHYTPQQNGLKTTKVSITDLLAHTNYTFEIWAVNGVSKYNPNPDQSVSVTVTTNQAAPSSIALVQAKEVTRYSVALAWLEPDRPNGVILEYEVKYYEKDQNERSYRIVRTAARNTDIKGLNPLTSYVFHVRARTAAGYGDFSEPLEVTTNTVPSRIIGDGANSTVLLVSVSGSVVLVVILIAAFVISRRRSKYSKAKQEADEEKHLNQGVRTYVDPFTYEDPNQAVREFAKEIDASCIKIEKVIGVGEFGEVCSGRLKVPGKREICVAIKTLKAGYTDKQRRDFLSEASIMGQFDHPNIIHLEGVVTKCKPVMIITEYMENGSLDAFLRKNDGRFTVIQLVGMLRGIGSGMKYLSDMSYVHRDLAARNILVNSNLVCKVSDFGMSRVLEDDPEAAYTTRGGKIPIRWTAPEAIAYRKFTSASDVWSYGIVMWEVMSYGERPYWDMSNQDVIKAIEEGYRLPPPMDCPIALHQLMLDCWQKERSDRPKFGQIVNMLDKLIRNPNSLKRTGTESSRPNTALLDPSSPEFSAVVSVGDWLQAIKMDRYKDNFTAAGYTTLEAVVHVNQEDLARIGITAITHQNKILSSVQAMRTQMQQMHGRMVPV", "test": "EphA4 kinetics imaging in HEK 293T cells transfected with GPhosEphA and EphA4", "format": "cell-based", "conditions": "Disassociation rate of EphA4 receptor after Genistien treatment (10 μm)", "procedure": "(§1) Cells were imaged in ACSF on a spinning disk confocal (PerkinElmer) encased in a humidified temperature controlled incubator attached to a CCD-EM camera (Hamamatsu). Images were taken as a […] z-projection ([…] step size) every 20 seconds. After a 2 minute baseline, cells were treated and imaged with either DyLight 649 (Jackson Immunoresearch) labeled EphrinB2-FC or DyLight 649 labeled EphrinA1-FC (both at 500 ng/ml) for 15 minutes. Before continuing the experiment, bath was exchanged with fresh ASCF. Genistien (10 μm; Calbiochem) was added to previously imaged cells after a 2 minute baseline and imaged for an additional 15 minutes. Images were collected via Volocity software and analyzed using NIH ImageJ as detailed below.\n(§2) Image analysis was conducted off-line using NIH ImageJ using both custom and standard macros. […] Ratio change was calculated as DF/F=(F−F0)/F0 (Yuste and Konnerth, 2005). Significance between conditions was determined by two-way ANOVA with Bonferroni post-hoc tests. Receptor “on” kinetics were calculated as one-phase association, and “off” kinetics were calculated as one-phase decay. All statistical measures were conducted using GraphPad Prism version 5.00 (GraphPad Software, San Diego, Calif.) on a per coverslip basis with several cells analyzed per coverslip from a minimum of three independent experiments. […]"}, "[2]": {"target": "T2, EphB2 (Homo sapiens, UniProt P29323)", "T2 construct": "expressed in transfected cells; host or cells: HEK 293T", "T2 sequence (P29323 19-1055)": "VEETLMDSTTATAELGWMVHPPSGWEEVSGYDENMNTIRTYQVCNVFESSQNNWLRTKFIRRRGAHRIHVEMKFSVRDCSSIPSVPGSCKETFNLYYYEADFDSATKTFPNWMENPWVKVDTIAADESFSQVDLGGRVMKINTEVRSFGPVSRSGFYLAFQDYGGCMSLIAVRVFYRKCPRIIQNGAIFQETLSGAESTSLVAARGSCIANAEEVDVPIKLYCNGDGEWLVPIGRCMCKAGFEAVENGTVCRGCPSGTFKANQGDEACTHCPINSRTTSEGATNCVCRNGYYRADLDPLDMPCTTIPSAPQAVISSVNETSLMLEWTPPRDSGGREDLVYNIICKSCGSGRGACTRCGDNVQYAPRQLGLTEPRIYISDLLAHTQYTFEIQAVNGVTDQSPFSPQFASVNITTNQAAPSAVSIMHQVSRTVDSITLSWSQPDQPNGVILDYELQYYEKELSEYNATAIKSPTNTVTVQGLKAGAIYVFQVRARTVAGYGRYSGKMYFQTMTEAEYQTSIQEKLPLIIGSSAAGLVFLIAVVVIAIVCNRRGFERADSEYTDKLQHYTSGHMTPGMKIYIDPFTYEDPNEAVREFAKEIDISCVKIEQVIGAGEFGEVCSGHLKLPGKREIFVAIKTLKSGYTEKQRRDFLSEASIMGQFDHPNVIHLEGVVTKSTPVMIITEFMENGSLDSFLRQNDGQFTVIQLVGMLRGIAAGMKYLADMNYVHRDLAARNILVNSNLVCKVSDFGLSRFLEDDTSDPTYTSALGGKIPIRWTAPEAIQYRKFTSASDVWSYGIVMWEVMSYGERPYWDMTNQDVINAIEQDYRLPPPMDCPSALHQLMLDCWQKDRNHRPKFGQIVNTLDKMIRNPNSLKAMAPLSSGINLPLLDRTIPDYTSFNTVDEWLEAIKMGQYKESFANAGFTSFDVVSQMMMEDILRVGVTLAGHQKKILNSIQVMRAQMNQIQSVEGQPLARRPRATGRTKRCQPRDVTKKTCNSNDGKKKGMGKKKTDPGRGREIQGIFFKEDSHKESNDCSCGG", "test": "EphB2 kinetics imaging in HEK 293T cells transfected with GPhosEphB and EphB2", "format": "cell-based", "conditions": "Disassociation rate of EphB2 receptor after Genistien treatment (10 μm)", "procedure": "as §1, §2"}}, "data": [{"smiles": "O=c1c(-c2ccc(O)cc2)coc2cc(O)cc(O)c12", "note": "[Genistein]", "values": [{"measurement": "One phase decay Tau", "setting": "[1]", "result": 0.8484}, {"measurement": "One phase decay Tau", "setting": "[2]", "result": 1.588}]}]}
